Measured values from ChEMBL document CHEMBL3779818, “Design, synthesis and evaluation of a novel stacking nano-intercalator as an anti-tumor agent” (Medchemcomm, 2016).
Active and inactive are the calls of the source. No cut-off for these calls is given here.

Columns and labels:
Mus musculus [1] = assay: Cardiotoxicity in ICR mouse xenografted with mouse S180 cells; assay type: toxicity, organism-based, CCRF S-180; details: in vivo
Calf thymus DNA [2] = assay: Induction of DNA intercalation of calf thymus DNA assessed as decrease in fluorescence intensity at 345 nm measured at 0.18 uM by fluorescence spectroscopy; assay type: nucleic-acid assay; details: Bos taurus
Spleen = assay: Drug uptake in ICR mouse spleen xenografted with mouse S180 cells at 1 umol/kg/day, po after 7 days; assay type: ADME, organism-based, CCRF S-180; details: in vivo, 168 h
Blood = assay: Drug uptake in ICR mouse blood xenografted with mouse S180 cells at 1 umol/kg/day, po after 7 days; assay type: ADME, organism-based, CCRF S-180; details: in vivo, 168 h
Calf thymus DNA [3] = assay: Induction of DNA intercalation of calf thymus DNA assessed as increase in fluorescence intensity at 345 nm using 80 uM calf thymus DNA by fluorescence spectroscopy; assay type: nucleic-acid assay; details: Bos taurus
Mus musculus [4] = assay: Acute toxicity in ICR mouse xenografted with S180 cells assessed as brain weight at 100 umol/kg, po; assay type: organism-based, CCRF S-180; details: in vivo
Tumour = assay: Drug level in tumor in ICR mouse xenografted with S180 cells at 1 umol/kg/day, po after 7 days; assay type: ADME, organism-based, Neoplasm, CCRF S-180; details: in vivo, 168 h
Calf thymus DNA [5] = assay: Induction of DNA intercalation of calf thymus DNA assessed as increase in absorption at 0.9 uM using 4 uM calf thymus DNA measured at 208 nm by UV spectrophotometry; assay type: nucleic-acid assay; details: Bos taurus
Mus musculus [6] = assay: Acute toxicity in ICR mouse xenografted with S180 cells assessed as kidney weight at 100 umol/kg, po; assay type: organism-based, CCRF S-180; details: in vivo
Mus musculus [7] = assay: Acute toxicity in ICR mouse assessed as change in serum AST level at 100 umol/kg, po administered as single dose measured on 7th day; assay type: organism-based; details: in vivo
Mus musculus [8] = assay: Acute toxicity in ICR mouse assessed as morphological changes in organs at 100 umol/kg, po administered as single dose observed for 7 days; assay type: organism-based; details: in vivo, 168 h
Mus musculus [9] = assay: Acute toxicity in ICR mouse xenografted with S180 cells assessed as spleen weight at 100 umol/kg, po; assay type: organism-based, CCRF S-180; details: in vivo
Mus musculus [10] = assay: Acute toxicity in ICR mouse assessed as change in serum creatinine level at 100 umol/kg, po administered as single dose measured on 7th day; assay type: organism-based; details: in vivo
Brain = assay: Drug uptake in ICR mouse brain xenografted with mouse S180 cells at 1 umol/kg/day, po after 7 days; assay type: ADME, organism-based, CCRF S-180; details: in vivo, 168 h
Calf thymus DNA [11] = assay: Induction of DNA intercalation of calf thymus DNA assessed as increase in absorption at 0.9 uM using 4 uM calf thymus DNA measured at 258 nm by UV spectrophotometry; assay type: nucleic-acid assay; details: Bos taurus
Calf thymus DNA [12] = assay: Induction of DNA intercalation of calf thymus DNA assessed as increase in absorption at 7.4 uM measured at 208 nm using 200 uM calf thymus DNA by UV spectrophotometry; assay type: nucleic-acid assay; details: Bos taurus
Heart = assay: Drug uptake in ICR mouse heart xenografted with mouse S180 cells at 1 umol/kg/day, po after 7 days; assay type: ADME, organism-based, CCRF S-180; details: in vivo, 168 h
CCRF S-180 [13] = assay: Antiproliferative activity against mouse S180 cells assessed as cell viability after 48 hrs by MTT assay; assay type: functional, cell-based; details: CCRF S-180, 48 h
CCRF S-180 [14] = assay: Antitumor activity against mouse S180 cells xenografted in po dosed ICR mouse assessed as decrease in tumor growth administered daily for 14 days; assay type: functional, organism-based
CCRF S-180 [15] = assay: Antiproliferative activity against mouse S180 cells at 3.5 uM after 24 hrs by confocal microscopy; assay type: functional, cell-based
CCRF S-180 [16] = assay: Potency index, ratio of activity of Doxorubicin to test compound for antitumor activity against mouse S180 cells; assay type: functional
[17] = Retention time of compound by HPLC method; assay type: physicochemical
HeLa [18] = assay: Antiproliferative activity against human HeLa cells assessed as cell viability after 48 hrs by MTT assay; assay type: functional, cell-based
Liver = assay: Drug uptake in ICR mouse liver xenografted with mouse S180 cells at 1 umol/kg/day, po after 7 days; assay type: ADME, organism-based, CCRF S-180; details: in vivo, 168 h
Kidney = assay: Drug uptake in ICR mouse kidney xenografted with mouse S180 cells at 1 umol/kg/day, po after 7 days; assay type: ADME, organism-based, CCRF S-180; details: in vivo, 168 h
Calf thymus DNA [19] = assay: Induction of DNA intercalation of calf thymus DNA assessed as decrease in absorption at 7.4 uM measured at 258 nm using 200 uM calf thymus DNA by UV spectrophotometry; assay type: nucleic-acid assay; details: Bos taurus
Lung = assay: Drug uptake in ICR mouse lung xenografted with mouse S180 cells at 1 umol/kg/day, po after 7 days; assay type: ADME, organism-based, CCRF S-180; details: in vivo, 168 h
Mus musculus [20] = assay: Acute toxicity in ICR mouse assessed as normal behavior at 100 umol/kg, po administered as single dose observed for 7 days; assay type: organism-based; details: in vivo, 168 h
HeLa [21] = assay: Antiproliferative activity against human HeLa cells at 3.5 uM after 24 hrs by confocal microscopy; assay type: functional, cell-based
Mus musculus [22] = assay: Acute toxicity in ICR mouse xenografted with S180 cells assessed as liver weight at 100 umol/kg, po; assay type: organism-based, CCRF S-180; details: in vivo
Mus musculus [23] = assay: Acute toxicity in ICR mouse xenografted with S180 cells assessed as heart weight at 100 umol/kg, po; assay type: organism-based, CCRF S-180; details: in vivo
Mus musculus [24] = assay: Acute toxicity in ICR mouse assessed as change in serum ALT level at 100 umol/kg, po administered as single dose measured on 7th day; assay type: organism-based; details: in vivo

COc1cccc2c1C(=O)c1c(O)c3c(c(O)c1C2=O)C[C@@](O)(C(=O)CO)C[C@@H]3O[C@H]1C[C@H](N)[C@H](O)[C@H](C)O1 [DOXORUBICIN]
Activity (Mus musculus [1]): Toxic

O=C1[C@@H]2Cc3c([nH]c4ccccc34)CN2C(=O)[C@@H]2Cc3c([nH]c4ccccc34)CN12
Activity (Calf thymus DNA [2]): Active | Drug uptake (Spleen): Not Active | Drug uptake (Blood): Not Active | Activity (Calf thymus DNA [3]): Active | Activity (Mus musculus [4]): Non-toxic | Drug uptake (Tumour): Active | Activity (Calf thymus DNA [5]): Active | Activity (Mus musculus [6]): Non-toxic | Activity (Mus musculus [7]): Non-toxic | Activity (Mus musculus [8]): Non-toxic | Activity (Mus musculus [9]): Non-toxic | Activity (Mus musculus [10]): Non-toxic | Drug uptake (Brain): Not Active | Activity (Calf thymus DNA [11]): Active | Activity (Calf thymus DNA [12]): Active | Drug uptake (Heart): Not Active | IC50 (CCRF S-180 [13]): 0.39 µM | Activity (CCRF S-180 [14]): Dose-dependent effect | Activity (CCRF S-180 [15]): Active | Ratio (CCRF S-180 [16]): 2 | Retention_time [17]: 5.704 min | IC50 (HeLa [18]): 3.5 µM | Drug uptake (Liver): Not Active | Activity (Mus musculus [1]): Non-toxic | Drug uptake (Kidney): Not Active | Activity (Calf thymus DNA [19]): Active | Drug uptake (Lung): Not Active | Activity (Mus musculus [20]): Non-toxic | Activity (HeLa [21]): Active | Activity (Mus musculus [22]): Non-toxic | Activity (Mus musculus [23]): Non-toxic | Activity (Mus musculus [24]): Non-toxic
